Experimental data as given in patent US10975068B2, “6-aminopyridin-3-yl thiazoles as modulators of RORγT” (Janssen Pharmaceutica NV, priority 2016, dated 2021).
Where two headings read alike, the source gives them in different places.

Tests used:
full-length human RORγt = full-length human RORγt (Homo sapiens (Human), UniProt P51449); assay: RORγt (full-length human) reporter assay, Conditions B or C; format: cell-based; conditions: for RORγt (FL) Reporter Assay B or C, % inhibition (value marked *): marked *: footnote not given; for inhibition at 3 µM: at 3 μM compound concentration, read-out: RORγt (FL) Reporter Assay B or C, % inhibition
full-length human RORγt, sequence (P51449 other isoform, or with tags, fused parts or gaps): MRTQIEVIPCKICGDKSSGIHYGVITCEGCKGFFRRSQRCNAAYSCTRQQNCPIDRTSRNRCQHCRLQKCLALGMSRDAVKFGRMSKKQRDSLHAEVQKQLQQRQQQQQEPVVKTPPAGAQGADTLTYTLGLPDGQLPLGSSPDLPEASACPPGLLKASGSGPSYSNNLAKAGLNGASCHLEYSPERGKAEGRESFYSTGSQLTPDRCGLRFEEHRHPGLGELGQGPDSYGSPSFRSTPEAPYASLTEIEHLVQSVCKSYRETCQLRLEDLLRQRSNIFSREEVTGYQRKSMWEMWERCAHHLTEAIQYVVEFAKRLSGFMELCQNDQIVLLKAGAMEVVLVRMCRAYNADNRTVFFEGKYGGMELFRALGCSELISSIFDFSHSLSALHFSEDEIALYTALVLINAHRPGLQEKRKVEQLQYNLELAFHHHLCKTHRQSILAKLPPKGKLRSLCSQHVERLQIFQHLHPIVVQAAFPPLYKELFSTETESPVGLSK
In short: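 HEK293T cells transiently co-transfected with GAL4-DBD–full-length human RORγt (nt 142-1635, NM_001001523.1) plus GAL4-firefly and CMV-Renilla luciferase reporters; compounds added 4-6 h post-transfection for 16-20 h in 1.3% FBS, 0.1% DMSO. Firefly signal normalized to DMSO and saturating reference compound, then to Renilla; IC50 from concentration plots.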

[1] = biological target: human RORγt ligand binding domain (RORγt LBD) (Homo sapiens (Human), UniProt P51449); assay: RORγt ThermoFluor® assay (thermal shift binding); conditions: for Kd: read-out: ThermoFluor® Assay, Kd
human RORγt ligand binding domain (RORγt LBD), sequence (P51449 other isoform, or with tags, fused parts or gaps): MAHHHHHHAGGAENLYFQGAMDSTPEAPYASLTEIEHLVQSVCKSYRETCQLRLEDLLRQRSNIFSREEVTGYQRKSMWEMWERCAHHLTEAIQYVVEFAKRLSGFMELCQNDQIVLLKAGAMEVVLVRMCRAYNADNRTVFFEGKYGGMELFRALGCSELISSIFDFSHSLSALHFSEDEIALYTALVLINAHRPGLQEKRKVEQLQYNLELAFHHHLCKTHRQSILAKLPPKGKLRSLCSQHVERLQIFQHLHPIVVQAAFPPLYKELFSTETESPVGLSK
In short: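 His-tagged human RORγt LBD (0.065 mg/mL) with 60 μM 1,8-ANS in 100 mM Hepes pH 7.0, 10 mM NaCl, 2.5 mM GSH, 0.002% Tween-20 was heated at 1 °C/min.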

[2] = Conditions B or C, read-out: RORγt (FL) Reporter Assay B or C, IC50
[3] = compared to Comparator Example 1
[4] = compared to Comparator Example 2
[5] = read-out: RORγt (FL) Reporter Assay B or C, IC50

C[C@H]1CCCN1C(=O)c1nc(C(=O)NCC(C)(C)O)sc1-c1cnc(NC2CCCCC2)c(C#N)c1 [Example 146, (S)-5-(5-Cyano-6-(cyclohexylamino)pyridin-3-yl)-N-(2-hydroxy-2-methylpropyl)-4-(2-methylpyrrolidine-1-carbonyl)thiazole-2-carboxamide]
RORγt (FL) Reporter Assay B or C, % inhibition (value marked *) (full-length human RORγt; Conditions B or C): 98* %
IC50 (full-length human RORγt; [2]): 0.83 µM
IC50 (full-length human RORγt; HEK293T cells, read-out: RORγt (FL) Reporter Assay B or C, IC50): 0.83 µM
fold improvement in RORγt reporter assay activity (full-length human RORγt; [3]): 7.2 fold
fold improvement in RORγt reporter assay activity (full-length human RORγt; [4]): 3.6 fold
fold improvement in RORγt Thermofluor® binding assay activity [1, 3]: 14 fold
fold improvement in RORγt Thermofluor® binding assay activity [1, 4]: 27 fold
Kd [1]: 210 nM

C[C@H](Nc1cc(C(F)F)c(-c2sc(C(=O)N3CC(S(C)(=O)=O)C3)nc2C(=O)N2CCC[C@@H]2C)cn1)C(F)(F)F [Example 450]
inhibition at 3 µM (full-length human RORγt): 106%
IC50 (full-length human RORγt; [5]): 0.23 µM
Kd [1]: 50 nM

C[C@H](Nc1cc(C(F)F)c(-c2sc(C(=O)NCC(C)(C)O)nc2C(=O)N2CCC[C@@H]2C)cn1)C(C)(C)C [Example 299, 5-(4-(Difluoromethyl)-6-(((S)-3,3-dimethylbutan-2-yl)amino)pyridin-3-yl)-N-(2-hydroxy-2-methylpropyl)-4-((S)-2-methylpyrrolidine-1-carbonyl)thiazole-2-carboxamide]
inhibition at 3 µM (full-length human RORγt): 103%
IC50 (full-length human RORγt; [5]): 0.011 µM
Kd [1]: 0.91 nM

C[C@H](Nc1cc(C(F)F)c(-c2sc(C(=O)N[C@@H]3CCC[C@H]3O)nc2C(=O)N2CC(F)(F)C[C@@H]2C)cn1)C(F)(F)F [Example 420, 4-[(2S)-4,4-Difluoro-2-methyl-pyrrolidine-1-carbonyl]-5-[4-(difluoromethyl)-6-[[(1S)-2,2,2-trifluoro-1-methyl-ethyl]amino]-3-pyridyl]-N-[(1R,2R)-2-hydroxycyclopentyl]thiazole-2-carboxamide]
inhibition at 3 µM (full-length human RORγt): 103%
IC50 (full-length human RORγt; [5]): 0.032 µM
Kd [1]: 0.73 nM

C[C@H]1CCCN1C(=O)c1nc(C(=O)N[C@H]2CC[C@@H]2O)sc1-c1cnc(NC(C)(C)C)cc1C(F)(F)F (relative stereo) [Example 371, 5-(6-(tert-Butylamino)-4-(trifluoromethyl)pyridin-3-yl)-N-((1S*,2S*)-2-hydroxycyclobutyl)-4-((S)-2-methylpyrrolidine-1-carbonyl)thiazole-2-carboxamide]
inhibition at 3 µM (full-length human RORγt): 108%
IC50 (full-length human RORγt; [5]): 0.019 µM
Kd [1]: 0.88 nM

CC(C)(O)CNC(=O)c1nc(C(=O)N2C3CCC2CC3)c(-c2cnc(NC(C3CC3)C3CC3)cc2C(F)(F)F)s1 [Example 137, 4-((1s,4s)-7-Azabicyclo[2.2.1]heptane-7-carbonyl)-5-(6-((dicyclopropylmethyl)amino)-4-(trifluoromethyl)pyridin-3-yl)-N-(2-hydroxy-2-methypropyl)thiazole-2-carboxamide]
RORγt (FL) Reporter Assay B or C, % inhibition (value marked *) (full-length human RORγt; Conditions B or C): 97* %
IC50 (full-length human RORγt; [2]): 0.012 µM
Kd [1]: 1.1 nM

CC[C@@H](Nc1cc(C(F)(F)F)c(-c2sc(C(=O)NCC(C)(C)O)nc2C(=O)N2CCC[C@@H]2C)cn1)C1CC1 (relative stereo) [Example 129, 5-(6-(((R*)-1-Cyclopropylpropyl)amino)-4-(trifluoromethyl)pyridin-3-yl)-N-(2-hydroxy-2-methylpropyl)-4-((S)-2-methylpyrrolidine-1-carbonyl)thiazole-2-carboxamide]
RORγt (FL) Reporter Assay B or C, % inhibition (value marked *) (full-length human RORγt; Conditions B or C): 104* %
IC50 (full-length human RORγt; [2]): 0.011 µM
Kd [1]: 3 nM

C[C@H]1CC(F)(F)CN1C(=O)c1nc(C(=O)NCC(C)(C)O)sc1-c1cnc(NC(C)(C)C)cc1C(F)F [Example 143, (S)-5-(6-(tert-Butylamino)-4-(difluoromethyl)pyridin-3-yl)-4-(4,4-difluoro-2-methylpyrrolidine-1-carbonyl)-N-(2-hydroxy-2-methylpropyl)thiazole-2-carboxamide]
RORγt (FL) Reporter Assay B or C, % inhibition (value marked *) (full-length human RORγt; Conditions B or C): 114* %
IC50 (full-length human RORγt; [2]): 0.039 µM
Kd [1]: 2.3 nM

C[C@H](Nc1cc(C(F)F)c(-c2sc(C(=O)N[C@H](C)C(C)(C)O)nc2C(=O)N2CC(F)(F)C[C@@H]2C)cn1)C1CC1 [Example 194, 5-(6-(((S)-1-Cyclopropylethyl)amino)-4-(difluoromethyl)pyridine-3-yl)-4-((S)-4,4-difluoro-2-methylpyrrolidine-1-carbonyl)-N—((R)-3-hydroxy-3-methylbutan-2-yl)thiazole-2-carboxamide]
RORγt (FL) Reporter Assay B or C, % inhibition (value marked *) (full-length human RORγt; Conditions B or C): 85* %
IC50 (full-length human RORγt; [2]): 0.088 µM
Kd [1]: 4.7 nM

C[C@H](Nc1cc(C(F)F)c(-c2sc(C(=O)N[C@H]3C[C@@H]3O)nc2C(=O)N2CCC[C@@H]2C)cn1)C(F)(F)F (single isomer, unassigned) [Example 158, 5-(4-(Difluoromethyl)-6-(((S)-1,1,1-trifluoropropan-2-yl)amino)pyridin-3-yl)-N-((1S*,2S*)-2-hydroxycyclopropyl)-4-((S)-2-methylpyrrolidine-1-carbonyl)thiazole-2-carboxamide]
RORγt (FL) Reporter Assay B or C, % inhibition (value marked *) (full-length human RORγt; Conditions B or C): 96* %
IC50 (full-length human RORγt; [2]): 0.31 µM
Kd [1]: 17 nM

C[C@H]1CCCN1C(=O)c1nc(C(=O)NC2CS(=O)(=O)C2)sc1-c1cnc(NC2CCCC2)cc1C(F)F [Example 61, (S)-5-(6-(Cyclopentylamino)-4-(difluoromethyl)pyridin-3-yl)-N-(1,1-dioxidothietan-3-yl)-4-(2-methylpyrrolidine-1-carbonyl)thiazole-2-carboxamide]
RORγt (FL) Reporter Assay B or C, % inhibition (value marked *) (full-length human RORγt; Conditions B or C): 103* %
IC50 (full-length human RORγt; [2]): 0.013 µM
Kd [1]: 7 nM

O=C(N[C@@H]1CC[C@@H](O)C1)c1nc(C(=O)N2C3CCC2CC3)c(-c2cnc(N[C@@H](C3CC3)C(F)(F)F)cc2C(F)F)s1 [Example 437, 4-((1s,4s)-7-Azabicyclo[2.2.1]heptane-7-carbonyl)-5-[6-[[(1S)-1-cyclopropyl-2,2,2-trifluoro-ethyl]amino]-4-(difluoromethyl)-3-pyridyl]-N-[(1R,3R)-3-hydroxycyclopentyl]thiazole-2-carboxamide]
IC50 (full-length human RORγt; RORγt (FL) Reporter Assay B or C, IC50): 0.016 µM
inhibition at 3 µM (full-length human RORγt): 90%
Kd [1]: 0.44 nM

C[C@H]1CCCN1C(=O)c1nc(C(=O)N[C@@H]2CCOC2)sc1-c1cnc(NC(C)(C)C)cc1C(F)(F)F [Example 373, 5-[6-(tert-Butylamino)-4-(trifluoromethyl)-3-pyridyl]-4-[(2S)-2-methylpyrrolidine-1-carbonyl]-N-[(3R)-tetrahydrofuran-3-yl]thiazole-2-carboxamide]
inhibition at 3 µM (full-length human RORγt): 122%
IC50 (full-length human RORγt; [5]): 0.0046 µM
Kd [1]: 1.9 nM

CC[C@H](Nc1cc(C(F)(F)F)c(-c2sc(C(=O)NCC(C)(C)O)nc2C(=O)N2C3CCC2CC3)cn1)C(F)(F)F [Example 101, 4-((1s,4s)-7-Azabicyclo[2.2.1]heptane-7-carbonyl)-N-(2-hydroxy-2-methylpropyl)-5-(6-(((S)-1,1,1-trifluorobutan-2-yl)amino)-4-(trifluoromethyl)pyridin-3-yl)thiazole-2-carboxamide]
RORγt (FL) Reporter Assay B or C, % inhibition (value marked *) (full-length human RORγt; Conditions B or C): 107* %
IC50 (full-length human RORγt; RORγt (FL) Reporter Assay B or C, IC50 (μM), Conditions B or C): 0.019 µM
Kd [1]: 3.2 nM

C[C@H]1CCCN1C(=O)c1nc(C(=O)NCC(C)(C)O)sc1-c1cnc(N[C@H](C)C(C)(C)C)cc1C(F)F [Example 298, 5-(4-(Difluoromethyl)-6-(((R)-3,3-dimethylbutan-2-yl)amino)pyridin-3-yl)-N-(2-hydroxy-2-methylpropyl)-4-((S)-2-methylpyrrolidine-1-carbonyl)thiazole-2-carboxamide]
inhibition at 3 µM (full-length human RORγt): 99%
IC50 (full-length human RORγt; [5]): 0.0077 µM
Kd [1]: 3.4 nM

C[C@H]1CCCN1C(=O)c1nc(C(=O)N[C@H]2C[C@H](O)C2)sc1-c1cnc(NC(C)(C)C)cc1C(F)F [Example 400, 5-(6-(tert-Butylamino)-4-(difluoromethyl)pyridin-3-yl)-N-((1R,3S)-3-hydroxycyclobutyl)-4-((S)-2-methylpyrrolidine-1-carbonyl)thiazole-2-carboxamide]
inhibition at 3 µM (full-length human RORγt): 84%
IC50 (full-length human RORγt; [5]): 0.056 µM
Kd [1]: 13 nM

C[C@H]1CCCN1C(=O)c1nc(C(=O)NC2CS(=O)(=O)C2)sc1-c1cnc(NC(C)(C)C)cc1C(F)(F)F [Example 260, 5-[6-(tert-Butylamino)-4-(trifluoromethyl)-3-pyridyl]-N-(1,1-dioxothietan-3-yl)-4-[(2S)-2-methylpyrrolidine-1-carbonyl]thiazole-2-carboxamide]
inhibition at 3 µM (full-length human RORγt): 112%
IC50 (full-length human RORγt; [5]): 0.014 µM
Kd [1]: 0.7 nM

C[C@H]1CCCN1C(=O)c1nc(C(=O)NCC(C)(C)O)sc1-c1cnc(NC2(C(F)(F)F)CCC2)cc1C(F)F [Example 123, (S)-5-(4-(Difluoromethyl)-6-((1-(trifluoromethyl)cyclobutyl)amino)pyridin-3-yl)-N-(2-hydroxy-2-methylpropyl)-4-(2-methylpyrrolidine-1-carbonyl)thiazole-2-carboxamide]
RORγt (FL) Reporter Assay B or C, % inhibition (value marked *) (full-length human RORγt; Conditions B or C): 105* %
IC50 (full-length human RORγt; [2]): 0.013 µM
Kd [1]: 1.9 nM

CC[C@H](Nc1cc(C(F)F)c(-c2sc(C(=O)N[C@H](C)C(C)(C)O)nc2C(=O)N2CC(F)(F)C[C@@H]2C)cn1)C(F)(F)F [Example 245, 4-[(2S)-4,4-Difluoro-2-methyl-pyrrolidine-1-carbonyl]-5-[4-(difluoromethyl)-6-[[(1S)-1-(trifluoromethyl)propyl]amino]-3-pyridyl]-N-[(1R)-2-hydroxy-1,2-dimethyl-propyl]thiazole-2-carboxamide]
RORγt (FL) Reporter Assay B or C, % inhibition (value marked *) (full-length human RORγt; Conditions B or C): 98* %
IC50 (full-length human RORγt; [2]): 0.026 µM
Kd [1]: 1.6 nM
